Measured values from ChEMBL document CHEMBL6078646, “Target Ligand Separation and Identification of Isoforsythiaside as a Histone Lysine-Specific Demethylase 1 Covalent Inhibitor Against Breast Cancer Metastasis” (J Med Chem, 2024).
pKd: −log10 of the molar value. Activity calls are given as the source filed them. The rule behind the calls is not given here.

How the values were obtained:
[1] = molecular target: T1, Lysine-specific histone demethylase 1A (Homo sapiens, UniProt O60341); experiment: Binding affinity to LSD1 (unknown origin) assessed as protection of pronase-dependent degradation at 15 to 75 uM preincubated for 30 mins followed by pronase addition and measured after 30 mins by DARTS assay; conditions: dose 15-75 µM, time 60.0 min
[2] = Toxicity in female Balb/c nude mouse xenografted with human MDA-MB-231 cells expressing luciferase assessed as appearance of spleen lesions at 12 to 50 mg/kg, ip administered every 3 days and measured after 30 days by H and E staining based analysis; format: organism-based; conditions: in vivo, 720 h, dose 12-50 mg/kg, time 30 day
[3] = molecular target: T1, Lysine-specific histone demethylase 1A; experiment: Binding affinity to LSD1 (unknown origin) assessed as dissociation constant by Microscale thermophoresis assay
[4] = molecular target: T1, Lysine-specific histone demethylase 1A; experiment: Inhibition of LSD1 in human MDA-MB-231 cells assessed as increase in H3K4me1 accumulation by Western blotting analysis; format: cell-based; conditions: dose 0-32 µM
[5] = species on record: Homo sapiens; experiment: Binding affinity to recombinant LSD1 Ser817A mutant (unknown origin) assessed as protection of pronase-dependent degradation at 15 to 75 uM preincubated for 30 mins followed by pronase addition and measured after 30 mins by DARTS assay; conditions: dose 15-75 µM, time 60.0 min
[6] = test system: MDA-MB-231; experiment: Antimetastatic activity against human MDA-MB-231 cells expressing luciferase xenografted in female Balb/c nude mouse assessed as reduction in fluorescence intensity in lungs at 50 mg/kg, ip administered every 3 days and measured on day 15 by bioluminescence imaging analysis relative to control; format: functional; set-up: scale not given: the % may be the effect or the level left; conditions: time 15 day
[7] = test system: MDA-MB-231; experiment: Antitumor activity against human MDA-MB-231 cells expressing luciferase xenografted in female Balb/c nude mouse assessed as increase in body weight at 12 to 50 mg/kg, ip administered every 3 days and measured after 33 days; format: functional, organism-based; conditions: dose 12-50 mg/kg, time 33.0 day
[8] = test system: MDA-MB-231; experiment: Antimetastatic activity against human MDA-MB-231 cells expressing luciferase xenografted in female Balb/c nude mouse assessed as reduction in fluorescence intensity in lungs at 25 mg/kg, ip administered every 3 days and measured on day 15 by bioluminescence imaging analysis relative to control; format: functional; set-up: scale not given: the % may be the effect or the level left; conditions: time 15 day
[9] = test system: MDA-MB-231; experiment: Antimetastatic activity against human MDA-MB-231 cells expressing luciferase xenografted in female Balb/c nude mouse assessed as reduction in number of metastatic nodules in the lung at 25 mg/kg, ip administered every 3 days and measured after 30 days by H and E staining based histopathological analysis relative to control; format: functional; set-up: scale not given: the % may be the effect or the level left; conditions: time 30 day
[10] = Cytotoxicity against human MCF-10A cells assessed as cell viability at 0 to 100 uM incubated for 24 hrs by MTT assay; format: toxicity, cell-based; conditions: dose 0-100 µM, read-out: Activity
[11] = test system: MDA-MB-231; experiment: Upregulation of RBMS3 mRNA level in human MDA-MB-231 cells by qRT-PCR analysis; format: functional, cell-based; conditions: dose 4-32 µM
[12] = test system: MDA-MB-231; experiment: Inhibition of cell migration in LSD1 knockout human MDA-MB-231 cells at 16 uM incubated for 24 hrs by phase-contrast microscopy based wound healing assay; format: functional
[13] = molecular target: T1, Lysine-specific histone demethylase 1A; experiment: Binding affinity to recombinant LSD1 (unknown origin) at S817 residue by LC-MS/MS analysis
[14] = Toxicity in female Balb/c mouse assessed as effect on granulocyte level at 50 mg/kg, ip administered every other day for 7 times; format: organism-based; conditions: in vivo
[15] = test system: MDA-MB-231; experiment: Effect on E-cadherin protein expression in LSD1 knockout human MDA-MB-231 cells at 16 uM by Western blot analysis; format: functional, cell-based
[16] = Toxicity in female Balb/c nude mouse xenografted with human MDA-MB-231 cells expressing luciferase assessed as abnormalities spleen at 12 to 50 mg/kg, ip administered every 3 days and measured after 30 days by H and E staining based analysis; format: organism-based; conditions: in vivo, 720 h, dose 12-50 mg/kg, time 30 day
[17] = Toxicity in female Balb/c mouse assessed as histological changes in liver at 50 mg/kg, ip administered every other day for 7 times by H and E staining based analysis; format: organism-based; conditions: in vivo
[18] = test system: MDA-MB-231; experiment: Effect on LSD1 nuclear localization in human MDA-MB-231 cells transfected with LSD1 fluorescence antibody by fluorescence based analysis; format: functional, cell-based
[19] = species on record: Homo sapiens; experiment: Binding affinity to recombinant LSD1 Ser817A mutant (unknown origin) assessed as thermal stability at 50 uM preincubated for 30 mins followed by incubation under 37 to 52 degreeC for 5 mins by CETSA; conditions: time 35.0 min
[20] = Toxicity in female Balb/c nude mouse xenografted with human MDA-MB-231 cells expressing luciferase assessed as abnormalities heart at 12 to 50 mg/kg, ip administered every 3 days and measured after 30 days by H and E staining based analysis; format: organism-based; conditions: in vivo, 720 h, dose 12-50 mg/kg, time 30 day
[21] = test system: MDA-MB-231; experiment: Antimetastatic activity against LSD1 knockout human MDA-MB-231 cells xenografted in mouse model assessed as reduction in metastatic nodules in lung measured after 27 days by H and E staining based analysis; format: functional, cell-based; conditions: time 27.0 day
[22] = test system: MDA-MB-231; experiment: Inhibition of epithelial to mesenchymal transition in human MDA-MB-231 cells assessed as upregulation of E-cadherin protein expression by Western blotting analysis; format: functional, cell-based; conditions: dose 0-32 µM
[23] = test system: MDA-MB-231; experiment: Inhibition of cell invasion in LSD1 knockout human MDA-MB-231 cells at 16 uM incubated for 24 hrs by phase contract microscopy based transwell assay; format: functional
[24] = test system: MDA-MB-231; experiment: Inhibition of cell invasion in human MDA-MB-231 cells assessed as reduction in number of invasive cells at 4 to 32 uM incubated for 24 hrs by phase contrast microscopy Transwell assay; format: functional, cell-based; conditions: dose 4-32 µM
[25] = test system: MDA-MB-231; experiment: Induction of RBMS3 promoter transcriptional activity in human MDA-MB-231 cells by luciferase reporter gene assay; format: functional, cell-based
[26] = test system: MDA-MB-231; experiment: Inhibition of MMP2 production in human MDA-MB-231 cells by Western blotting analysis; format: functional, cell-based; conditions: dose 0-32 µM
[27] = test system: MDA-MB-231; experiment: Induction of LSD1 degradation in human MDA-MB-231 cells at 4 to 32 uM in presence of MG132 by Western blot analysis; format: cell-based; conditions: dose 4-32 µM
[28] = test system: MDA-MB-231; experiment: Effect on CD86 protein expression in LSD1 knockout human MDA-MB-231 cells at 16 uM by Western blot analysis; format: functional, cell-based
[29] = Toxicity in female Balb/c mouse assessed as effect on creatinine level at 50 mg/kg, ip administered every other day for 7 times; format: organism-based; conditions: in vivo
[30] = Toxicity in female Balb/c mouse assessed as histological changes in heart at 50 mg/kg, ip administered every other day for 7 times by H and E staining based analysis; format: organism-based; conditions: in vivo
[31] = Toxicity in female Balb/c mouse assessed as histological changes in spleen at 50 mg/kg, ip administered every other day for 7 times by H and E staining based analysis; format: organism-based; conditions: in vivo
[32] = species on record: Homo sapiens; experiment: Inhibition of recombinant LSD1 Ser817A mutant (unknown origin)
[33] = Toxicity in female Balb/c mouse assessed as effect on monocytes level at 50 mg/kg, ip administered every other day for 7 times; format: organism-based; conditions: in vivo
[34] = Retention time of the compound by HPLC-MS/MS analysis; format: physicochemical
[35] = test system: MDA-MB-231; experiment: Antimetastatic activity against human MDA-MB-231 cells expressing luciferase xenografted in female Balb/c nude mouse assessed as reduction in lung metastasis at 12 to 50 mg/kg, ip administered every 3 days and measured on day 30 by bioluminescence imaging analysis; format: functional, organism-based; conditions: dose 12-50 mg/kg, time 30.0 day
[36] = Toxicity in female Balb/c mouse assessed as effect on creatine kinase level at 50 mg/kg, ip administered every other day for 7 times; format: organism-based; conditions: in vivo

In the case of `C[C@@H]1O[C@H](OC[C@H]2O[C@@H](OCCc3ccc(O)c(O)c3)[C@H](O)[C@@H](OC(=O)/C=C/c3ccc(O)c(O)c3)[C@@H]2O)[C@H](O)[C@H](O)[C@H]1O`, the Activity [1] was “Active”, the Activity [2] was “Non-toxic” and the pKd [3] was 5.28. The inhibition [4] was “Dose-dependent-effect”, the Activity [5] was “inactive” and the Activity [6] was 73.3%. For the same compound, the Activity [7] was “Active; Slight Increase In Body Weight Observed”, the Activity [8] was 46.4% and the Activity [9] was 33.3%. For the same compound, the viability at 24 h, up to 100 µM [10] was over 90%, the Activity [11] was “Dose-dependent-effect” and the inhibition [12] was “Active; No Significant Difference With Lsd1 Knockout Control Group”. For the same compound, the Activity [13] was “Active”, the Activity [14] was “Non-toxic” and the Activity [15] was “inactive”. The Activity [16] was “Non-toxic”, the Activity [17] was “Non-toxic” and the Activity [18] was “inactive”. The Activity [19] was “inactive”, the Activity [20] was “Non-toxic” and the Activity [21] was “Active; No Significant Difference Compared To Lsd1 Knockout Control Group”. For the same compound, the inhibition [22] was “Dose-dependent-effect”, the inhibition [23] was “Active; No Significant Difference With Lsd1 Knockout Control Group” and the inhibition [24] was “Active”. The Activity [25] was “Active”, the inhibition [26] was “Dose-dependent-effect” and the Activity [27] was “inactive”. For the same compound, the Activity [28] was “inactive”, the Activity [29] was “Non-toxic” and the Activity [30] was “Non-toxic”. For the same compound, the Activity [31] was “Non-toxic”, the inhibition [32] was “inactive” and the Activity [33] was “Non-toxic”. The Retention_time [34] was 18.4 min, the Activity [35] was “Active” and the Activity [36] was “Non-toxic”.
